Reference: patent publication US11078193B2 (priority 2014, dated 2021)

How the values were obtained:
[1] = ATP based toxicity assay (ATPlite), HepG2 cell line; conditions: human, HepG2 cells, ATPlite (ATP levels)
Procedure: Alternatively, cytotoxicity was determined via an ATP-assay: The ATPlite kit from Perkin Elmer was used to assess compound cytotoxicity on the HepG2 cell line by determination of the ATP (adenosine triphosphate) levels. ATP is a marker for functional integrity and cell viability, because it is present in all metabolically active cells and any form of cell injury will result in a rapid decline in cellular ATP concentration. After compound incubation, 1 volume of ATPlite solution was added to the cells and the luminescence signal was measured.

[2] = Cytotoxicity, HepG2 cells, Resazurin assay; format: cell-based; conditions: human
[3] = system: HBV; assay: anti HBV activity, HepG2.117 inducibly HBV producing cell line (Tet-off), intracellular HBV DNA by realtime PCR; format: cell-based; conditions: Hepatitis B virus, 72 h, HepG2.117 cells, 3 days of treatment

SMILES | CC50 at 4 days [1] | CC50 at 4 days [2] | EC50 [3]
Cn1cc(S(=O)(=O)NC2(C)CC(F)(F)C2)c(F)c1C(=O)Nc1ccnc(C#N)c1 [Compound 53, N-(2-cyano-4-pyridyl)-4-[(3,3-difluoro-1-methyl-cyclobutyl)sulfamoyl]-3-fluoro-1-methyl-pyrrole-2-carboxamide] | > 25000 nM | > 25000 nM | 40 nM
Cn1cc(S(=O)(=O)NC2(C)CC(F)(F)C2)c(F)c1C(=O)Nc1ccnc(C(F)F)c1 [Compound 83, 4-[(3,3-difluoro-1-methyl-cyclobutyl)sulfamoyl]-N-[2-(difluoromethyl)-4-pyridyl]-3-fluoro-1-methyl-pyrrole-2-carboxamide] | > 25000 nM | > 25000 nM | 10 nM
C[C@@H](NS(=O)(=O)c1cc(C(=O)Nc2ccnc(C(F)F)c2)n(C)c1)C(C)(F)F [Compound 100, 4-[[(1R)-2,2-difluoro-1-methyl-propyl]sulfamoyl]-N-[2-(difluoromethyl)-4-pyridyl]-1-methyl-pyrrole-2-carboxamide] | > 25000 nM | > 25000 nM | 80 nM
Cn1cc(S(=O)(=O)NC(C)(C)C(F)(F)F)c(F)c1C(=O)Nc1ccnc(C(F)F)c1 [Compound 190, N-[2-(difluoromethyl)-4-pyridyl]-3-fluoro-1-methyl-4-[(2,2,2-trifluoro-1,1-dimethyl-ethyl)sulfamoyl]pyrrole-2-carboxamide] | > 25000 nM |  | 50 nM
Cn1cc(S(=O)(=O)NC(C)(C)C(F)(F)F)c(F)c1C(=O)Nc1ccnc(Br)c1 [Compound 191, N-(2-bromo-4-pyridyl)-3-fluoro-1-methyl-4-[(2,2,2-trifluoro-1,1-dimethyl-ethyl)sulfamoyl]pyrrole-2-carboxamide] | > 25000 nM |  | 60 nM
Cn1cc(S(=O)(=O)NC2(C(F)(F)F)CC2)c(F)c1C(=O)Nc1ccnc(C#N)c1 [Compound 192, N-(2-cyano-4-pyridyl)-3-fluoro-1-methyl-4-[[1-(trifluoromethyl)cyclopropyl]sulfamoyl]pyrrole-2-carboxamide] | > 25000 nM |  | 20 nM
Cn1cc(S(=O)(=O)NC2(C(F)(F)F)CC2)c(F)c1C(=O)Nc1cc(F)nc(F)c1 [Compound 193, N-(2,6-difluoro-4-pyridyl)-3-fluoro-1-methyl-4-[[1-(trifluoromethyl)cyclopropyl]sulfamoyl]pyrrole-2-carboxamide] | > 25000 nM |  | 9 nM
Cn1cc(S(=O)(=O)NC2(C(F)(F)F)CC2)c(F)c1C(=O)Nc1ccnc(Br)c1 [Compound 194, N-(2-bromo-4-pyridyl)-3-fluoro-1-methyl-4-[[1-(trifluoromethyl)cyclopropyl]sulfamoyl]pyrrole-2-carboxamide] | > 25000 nM |  | 20 nM
Cn1cc(S(=O)(=O)NC2(C(F)(F)F)CC2)c(F)c1C(=O)Nc1ccnc(C(F)F)c1F [Compound 195, N-[2-(difluoromethyl)-3-fluoro-4-pyridyl]-3-fluoro-1-methyl-4-[[1-(trifluoromethyl)cyclopropyl]sulfamoyl]pyrrole-2-carboxamide] | > 25000 nM |  | 20 nM
Cn1cc(S(=O)(=O)NC2(C(F)(F)F)CC2)c(F)c1C(=O)Nc1ccnc(C(F)F)c1 [Compound 196, N-[2-(difluoromethyl)-4-pyridyl]-3-fluoro-1-methyl-4-[[1-(trifluoromethyl)cyclopropyl]sulfamoyl]pyrrole-2-carboxamide] | > 25000 nM |  | 20 nM
Cn1cc(S(=O)(=O)NC2(C)CC(F)(F)C2)c(F)c1C(=O)Nc1ccnc(C#N)c1F [Compound 197, N-(2-cyano-3-fluoro-4-pyridyl)-4-[(3,3-difluoro-1-methyl-cyclobutyl)sulfamoyl]-3-fluoro-1-methyl-pyrrole-2-carboxamide] | > 25000 nM |  | 10 nM
Cn1cc(S(=O)(=O)NC2(C(F)(F)F)COC2)c(F)c1C(=O)Nc1ccnc(Cl)c1 [Compound 198] | > 25000 nM |  | 90 nM
Cn1cc(S(=O)(=O)NC(C)(C)C(F)(F)F)c(F)c1C(=O)Nc1ccnc(C(F)F)c1F [Compound 201, N-[2-(difluoromethyl)-3-fluoro-4-pyridyl]-3-fluoro-1-methyl-4-[(2,2,2-trifluoro-1,1-dimethyl-ethyl)sulfamoyl]pyrrole-2-carboxamide] | > 25000 nM |  | 30 nM
C[C@@H](NS(=O)(=O)c1cn(C)c(C(=O)Nc2ccnc(C(F)F)c2F)c1F)C(F)(F)F [Compound 202, N-[2-(difluoromethyl)-3-fluoro-4-pyridyl]-3-fluoro-1-methyl-4-[[(1R)-2,2,2-trifluoro-1-methyl-ethyl]sulfamoyl]pyrrole-2-carboxamide] | > 25000 nM |  | 8 nM
Cn1cc(S(=O)(=O)NC2(C(F)(F)F)CC2)c(F)c1C(=O)Nc1ccnc(Br)c1F [Compound 203, N-(2-bromo-3-fluoro-4-pyridyl)-3-fluoro-1-methyl-4-[[1-(trifluoromethyl)cyclopropyl]sulfamoyl]pyrrole-2-carboxamide] | > 25000 nM |  | 8 nM
C[C@@H](NS(=O)(=O)c1cn(C)c(C(=O)Nc2ccnc(C(F)F)c2F)c1F)C(C)(F)F [Compound 204, N-[2-(difluoromethyl)-3-fluoro-4-pyridyl]-4-[[(1R)-2,2-difluoro-1-methyl-propyl]sulfamoyl]-3-fluoro-1-methyl-pyrrole-2-carboxamide] | > 25000 nM |  | 10 nM
Cc1c(S(=O)(=O)N[C@H](C)C(F)(F)F)c(F)c(C(=O)Nc2ccnc(Br)c2)n1C [Compound 205, N-(2-bromo-4-pyridyl)-3-fluoro-1,5-dimethyl-[[(1R)-2,2,2-trifluoro-1-methyl-ethyl]sulfamoyl]pyrrole-2-carboxamide] | > 25000 nM |  | 20 nM
Cc1c(S(=O)(=O)N[C@H](C)C(F)(F)F)c(F)c(C(=O)Nc2ccnc(C(F)F)c2)n1C [Compound 206, N-[2-(difluoromethyl)-4-pyridyl]-3-fluoro-1,5-dimethyl-4-[[(1R)-2,2,2-trifluoro-1-methyl-ethyl]sulfamoyl]pyrrole-2-carboxamide] | > 25000 nM |  | 20 nM
Cc1c(S(=O)(=O)N[C@H](C)C(F)(F)F)c(F)c(C(=O)Nc2ccnc(C(F)F)c2F)n1C [Compound 207, N-[2-(difluoromethyl)-3-fluoro-4-pyridyl]-3-fluoro-1,5-dimethyl-4-[[(1R)-2,2,2-trifluoro-1-methyl-ethyl]sulfamoyl]pyrrole-2-carboxamide] | > 25000 nM |  | 10 nM
Cn1cc(S(=O)(=O)NC2(C(F)(F)F)COC2)c(F)c1C(=O)Nc1ccnc(C(F)F)c1F [Compound 208, N-[2-(difluoromethyl)-3-fluoro-4-pyridyl]-3-fluoro-1-methyl-4-[[3-(trifluoromethyl)oxetan-3-yl]sulfamoyl]pyrrole-2-carboxamide] | > 25000 nM |  | 40 nM
Cn1cc(S(=O)(=O)NC2(C(F)(F)F)COC2)c(F)c1C(=O)Nc1ccnc(Br)c1 [Compound 209, N-(2-bromo-4-pyridyl)-3-fluoro-1-methyl-4-[[3-(trifluoromethyl)oxetan-3-yl]sulfamoyl]pyrrole-2-carboxamide] | > 25000 nM |  | 90 nM
Cn1cc(S(=O)(=O)NC2(C(F)(F)F)COC2)c(F)c1C(=O)Nc1ccnc(C(F)F)c1 [Compound 210] | > 25000 nM |  | 70 nM
Cn1cc(S(=O)(=O)NC2(C(F)(F)F)COC2)c(F)c1C(=O)Nc1cc(F)nc(F)c1 [Compound 211] | > 25000 nM |  | 50 nM
Cn1cc(S(=O)(=O)NC2(C(F)(F)F)COC2)c(F)c1C(=O)Nc1ccnc(Cl)c1F [Compound 212, N-(2-chloro-3-fluoro-4-pyridyl)-3-fluoro-1-methyl-4-[[3-(trifluoromethyl)oxetan-3-yl]sulfamoyl]pyrrole-2-carboxamide] | > 25000 nM |  | 60 nM
Cc1cc(NC(=O)c2c(F)c(S(=O)(=O)N[C@H](C)C(F)(F)F)cn2C)cc(Cl)n1 [Compound 213, N-(2-chloro-6-methyl-4-pyridyl)-3-fluoro-1-methyl-4-[[(1R)-2,2,2-trifluoro-1-methyl-ethyl]sulfamoyl]pyrrole-2-carboxamide] | > 25000 nM |  | 50 nM
Cc1nc(NC(=O)c2c(F)c(S(=O)(=O)N[C@H](C)C(F)(F)F)cn2C)ccc1F [Compound 214, 3-fluoro-N-(5-fluoro-6-methyl-2-pyridyl)-1-methyl-4-[[(1R)-2,2,2-trifluoro-1-methyl-ethyl]sulfamoyl]pyrrole-2-carboxamide] | > 25000 nM |  | 80 nM
C[C@@H](NS(=O)(=O)c1cn(C)c(C(=O)Nc2cc(F)nc(Cl)c2)c1F)C(F)(F)F [Compound 215, N-(2-chloro-6-fluoro-4-pyridyl)-3-fluoro-1-methyl-4-[[(1R)-2,2,2-trifluoro-1-methyl-ethyl]sulfamoyl]pyrrole-2-carboxamide] | > 25000 nM |  | 6 nM
C[C@@H](NS(=O)(=O)c1cn(C)c(C(=O)Nc2cc(F)nc(Br)c2)c1F)C(F)(F)F [Compound 216, N-(2-bromo-6-fluoro-4-pyridyl)-3-fluoro-1-methyl-[[(1R)-2,2,2-trifluoro-1-methyl-ethyl]sulfamoyl]pyrrole-2-carboxamide] | > 25000 nM |  | 10 nM
Cn1cc(S(=O)(=O)NC2CCN(CC(F)(F)F)CC2)c(F)c1C(=O)Nc1ccnc(Cl)c1 [Compound 217, N-(2-chloro-4-pyridyl)-3-fluoro-1-methyl-4-[[1-(2,2,2-trifluoroethyl)-4-piperidyl]sulfamoyl]pyrrole-2-carboxamide] | > 25000 nM |  | 460 nM
